In ChEMBL document CHEMBL1201862, “PubChem BioAssay data set” (2004):
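A five-concentration, 48-hour dose response in 96-well plates underlies each endpoint, interpolated linearly between surrounding concentrations. Abbreviation: GI50, concentration required for 50% inhibition of growth.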 Activity calls are given as the source filed them. No stated cut-off is given here; in the data, active = GI50 up to about 1.1 µM and inactive = higher.

Legend:
Experiment in all cases: NCI anticancer screen, dose series, 48 h
HCT-15 = tested on: HCT-15
HCC 2998 = tested on: HCC 2998
CCRF-CEM = tested on: CCRF-CEM
MOLT-4 = tested on: MOLT-4
EKVX = tested on: EKVX
HOP-62 = tested on: HOP-62
HL-60 = tested on: HL-60
A498 = tested on: A498
SF-295 = tested on: SF-295
KM12 = tested on: KM12
SK-OV-3 = tested on: SK-OV-3
OVCAR-5 = tested on: OVCAR-5
SN12C = tested on: SN12C
UO-31 = tested on: UO-31
SF-539 = tested on: SF-539
OVCAR-4 = tested on: OVCAR-4
SR = tested on: SR
PC-3 = tested on: PC-3
SNB-75 = tested on: SNB-75
A549 = tested on: A549
MCF7 = tested on: MCF7
MDA-N = tested on: MDA-N
Malme-3M = tested on: Malme-3M
MDA-MB-435 = tested on: MDA-MB-435
MDA-MB-231 = tested on: MDA-MB-231
NCI/ADR-RES = tested on: NCI/ADR-RES
786-0 = tested on: 786-0
SK-MEL-5 = tested on: SK-MEL-5
UACC-257 = tested on: UACC-257
OVCAR-3 = tested on: OVCAR-3
HOP-92 = tested on: HOP-92
CAKI-1 = tested on: CAKI-1
M14 = tested on: M14
OVCAR-8 = tested on: OVCAR-8
RXF 393 = tested on: RXF 393
K562 = tested on: K562
SK-MEL-2 = tested on: SK-MEL-2
IGROV-1 = tested on: IGROV-1
SW-620 = tested on: SW-620
ACHN = tested on: ACHN
HT-29 = tested on: HT-29
HCT-116 = tested on: HCT-116
U-251 = tested on: U-251
LOX IMVI = tested on: LOX IMVI
NCI-H23 = tested on: NCI-H23
BT-549 = tested on: BT-549
NCI-H226 = tested on: NCI-H226
NCI-H522 = tested on: NCI-H522
T47D = tested on: T47D
RPMI-8226 = tested on: RPMI-8226
NCI-H460 = tested on: NCI-H460
DU-145 = tested on: DU-145
SNB-19 = tested on: SNB-19
COLO 205 = tested on: COLO 205
TK-10 = tested on: TK-10
Hs-578T = tested on: Hs-578T
SK-MEL-28 = tested on: SK-MEL-28
UACC-62 = tested on: UACC-62
SF-268 = tested on: SF-268
LXFL 529 = tested on: LXFL 529
DMS-273 = tested on: DMS-273
XF498 = tested on: XF498
M19-MEL = tested on: M19-MEL
DMS-114 = tested on: DMS-114
DLD-1 = tested on: DLD-1
KM-20L2 = tested on: KM-20L2

## COc1cc(CCNC2=CC(=O)c3ncccc3C2=O)ccc1O
HCT-15
  GI50: 1.94 µM
HCC 2998
  GI50: 4.23 µM (inactive)
CCRF-CEM
  GI50: 3.56 µM (inactive)
MOLT-4
  GI50: 2.99 µM (inactive)
EKVX
  GI50: 8.85 µM (inactive)
HOP-62
  GI50: 2.39 µM (inactive)
HL-60
  GI50: 3.01 µM (inactive)
A498
  GI50: 16.6 µM (inactive)
SF-295
  GI50: 1.6 µM (inactive)
KM12
  GI50: 5.25 µM (inactive)
SK-OV-3
  GI50: 12.6 µM (inactive)
OVCAR-5
  GI50: 8.91 µM (inactive)
SN12C
  GI50: 1.97 µM (inactive)
UO-31
  GI50: 5.3 µM (inactive)
SF-539
  GI50: 3.04 µM (inactive)
OVCAR-4
  GI50: 4.79 µM (inactive)
SR
  GI50: 3.48 µM (inactive)
PC-3
  GI50: 2.65 µM (inactive)
SNB-75
  GI50: 1.63 µM (inactive)
A549
  GI50: 2.1 µM (inactive)
MCF7
  GI50: 2.44 µM (inactive)
MDA-N
  GI50: 1.37 µM (inactive)
Malme-3M
  GI50: 0.753 µM (active)
MDA-MB-435
  GI50: 1.44 µM (inactive)
MDA-MB-231
  GI50: 2.37 µM (inactive)
NCI/ADR-RES
  GI50: 2.93 µM (inactive)
786-0
  GI50: 4.2 µM (inactive)
SK-MEL-5
  GI50: 0.54 µM (active)
UACC-257
  GI50: 1.9 µM (inactive)
OVCAR-3
  GI50: 1.22 µM (inactive)
HOP-92
  GI50: 19.2 µM (inactive)
CAKI-1
  GI50: 3.94 µM (inactive)
M14
  GI50: 1.71 µM (inactive)
OVCAR-8
  GI50: 2.41 µM (inactive)
RXF 393
  GI50: 5.45 µM (inactive)
K562
  GI50: 2.21 µM (inactive)
SK-MEL-2
  GI50: 2.53 µM (inactive)
IGROV-1
  GI50: 2.29 µM (inactive)
SW-620
  GI50: 2.84 µM (inactive)
ACHN
  GI50: 4.71 µM (inactive)
HT-29
  GI50: 4.2 µM (inactive)
HCT-116
  GI50: 3.17 µM (inactive)
U-251
  GI50: 2.09 µM (inactive)
LOX IMVI
  GI50: 0.65 µM (active)
NCI-H23
  GI50: 0.828 µM (active)
BT-549
  GI50: 1.46 µM (inactive)
NCI-H226
  GI50: 2.7 µM (inactive)
NCI-H522
  GI50: 2.08 µM (inactive)
T47D
  GI50: 21.8 µM (inactive)
RPMI-8226
  GI50: 6.76 µM (inactive)
NCI-H460
  GI50: 1.02 µM (active)
DU-145
  GI50: 3.6 µM (inactive)
SNB-19
  GI50: 3.48 µM (inactive)
COLO 205
  GI50: 18.6 µM (inactive)
TK-10
  GI50: 26.9 µM (inactive)
Hs-578T
  GI50: 2.36 µM (inactive)
SK-MEL-28
  GI50: 2 µM (inactive)
UACC-62
  GI50: 1.96 µM (inactive)
SF-268
  GI50: 8.11 µM (inactive)

## O=C(c1ccccc1)c1c(CC(O)c2ccccn2)n(C(=O)c2ccccc2)c2ccccc12 (centres undefined)
LXFL 529
  GI50: 28.5 µM (inactive)
HCT-15
  GI50: 23.4 µM
HCC 2998
  GI50: 31.5 µM (inactive)
CCRF-CEM
  GI50: 25.6 µM (inactive)
MOLT-4
  GI50: 17.1 µM (inactive)
HOP-62
  GI50: 17.9 µM (inactive)
HL-60
  GI50: > 10 µM (inactive)
SF-295
  GI50: 20.2 µM (inactive)
KM12
  GI50: 28.4 µM (inactive)
OVCAR-5
  GI50: 20.7 µM (inactive)
UO-31
  GI50: 22.1 µM (inactive)
SF-539
  GI50: 16.7 µM (inactive)
OVCAR-4
  GI50: 21.8 µM (inactive)
SR
  GI50: 15.1 µM (inactive)
DMS-273
  GI50: 23.6 µM (inactive)
SNB-75
  GI50: 8.04 µM (inactive)
A549
  GI50: 25.3 µM (inactive)
Malme-3M
  GI50: 18.6 µM (inactive)
XF498
  GI50: 20.4 µM (inactive)
786-0
  GI50: 26.1 µM (inactive)
SK-MEL-5
  GI50: 13.9 µM (inactive)
M19-MEL
  GI50: 20.8 µM (inactive)
UACC-257
  GI50: 17.7 µM (inactive)
OVCAR-3
  GI50: 17.5 µM (inactive)
HOP-92
  GI50: 18.9 µM (inactive)
CAKI-1
  GI50: 36.6 µM (inactive)
M14
  GI50: 18.9 µM (inactive)
OVCAR-8
  GI50: 29.2 µM (inactive)
K562
  GI50: 27.9 µM (inactive)
SK-MEL-2
  GI50: 14.9 µM (inactive)
IGROV-1
  GI50: 23.7 µM (inactive)
SW-620
  GI50: 31.4 µM (inactive)
ACHN
  GI50: 26.7 µM (inactive)
HT-29
  GI50: 15 µM (inactive)
HCT-116
  GI50: 14 µM (inactive)
U-251
  GI50: 25.1 µM (inactive)
DMS-114
  GI50: 22 µM (inactive)
NCI-H23
  GI50: 22.1 µM (inactive)
NCI-H226
  GI50: 20.5 µM (inactive)
NCI-H522
  GI50: 20.3 µM (inactive)
RPMI-8226
  GI50: 21.3 µM (inactive)
NCI-H460
  GI50: 21.5 µM (inactive)
DLD-1
  GI50: 26.9 µM (inactive)
SNB-19
  GI50: 34.1 µM (inactive)
COLO 205
  GI50: 23.1 µM (inactive)
TK-10
  GI50: 38.4 µM (inactive)
SK-MEL-28
  GI50: 20.4 µM (inactive)
UACC-62
  GI50: 15.7 µM (inactive)
KM-20L2
  GI50: 18.5 µM (inactive)
SF-268
  GI50: 28.3 µM (inactive)
